Measured values as given in patent publication US11446282B2, “Methods of treating mixed dyslipidemia and hypertriglycertdemia” (Kowa Company, Ltd., priority 2017, dated 2022).

Tested on: dyslipidemic patients with or without statin
Assay: Example 4 pooled analysis of phase 2 and 3 studies: safety parameters
Assay type: in vivo, human
Conditions: With Statin
Method: The present study analyzed data combined from 6 randomized double-blind placebo-controlled studies that were conducted in Japan and continued for 12 weeks unless otherwise noted: a phase 2 study in 224 patients with a history of documented dyslipidemia and plasma TG of 200 mg/dL (2.26 mmol/L) or higher, randomized to placebo, pemafibrate 0.05, 0.1, 0.2, 0.4 mg/day, or fenofibrate 100 mg/day; a phase 3 study in 526 patients with dyslipidemia, high TG levels, and low HDL-C levels, randomized to placebo, pemafibrate 0.1, 0.2, or 0.4 mg/day, or fenofibrate 100 or 200 mg/day; a study in 188 patients with dyslipidemia, randomized to pitavastatin in combination with pemafibrate 0.1, 0.2, or 0.4 mg/day; a 24-week study in 423 patients with dyslipidemia, randomized to pemafibrate 0.2 mg/day (fixed dose) or 0.2 [0.4] mg/day (conditional up-titration) with any statin; a 24-week phase 3 study in 166 patients with type 2 diabetes and hypertriglyceridemia, randomized to placebo or pemafibrate 0.2 or 0.4 mg/day; and a study in 27 patients with hypertriglyceridemia and insulin resistance, randomized to pemafibrate 0.4 mg/day or placebo. All studies were approved by the Institutional Review Board for each study institution and were conducted in accordance with the Declaration of Helsinki and under the guidelines of Good Clinical Practice.
In this study, we evaluated the efficacy and safety of pemafibrate at doses of 0.1 mg/day, 0.2 mg/day, and 0.4 mg/day, with and without statin. The primary efficacy endpoint was percent change in TG from baseline to 12 weeks. The secondary efficacy endpoints were also assessed from baseline to 12 weeks: percent change in HDL-C, LDL-C, non-HDL-C, TC, RemL-C, Apo AI, Apo AII, Apo B, Apo B48, Apo CII, Apo CIII, Apo CIII/Apo CII, and Apo E; percent change in HPLC findings for CM-C, VLDL-C, cholesterol content in 4 subclasses of LDL (large, medium, small, and very small LDLs), and cholesterol content for 5 subclasses of HDL (very large, large, medium, small, and very small HDLs); and changes in fibrinogen and FGF21. The primary safety endpoints were the incidence of adverse events and adverse drug reactions. Secondary safety endpoints were percentage of values above the upper limit of normal range for AST, ALT, sCr and CK, and change in sCr eGFR, CK, AST, ALT, gamma-glutamyl transferase (γ-GT), alkaline phosphatase (ALP), and total bilirubin.
Patients with renal dysfunction were defined as those with baseline eGFR<60 mL/min/1.73 m^2. Analysis was stratified by the presence or absence of renal dysfunction in the concomitant statin group, and efficacy and safety of pemafibrate were evaluated. In efficacy and safety evaluations excluding AEs, ADRs, and cutoff values for AST, ALT, sCr, and CK, findings were combined for pemafibrate subgroups receiving doses of 0.1 mg/day, 0.2 mg/day, and 0.4 mg/day.
For each lipid parameter, gel filtration HPLC was performed at Skylight Biotech, Inc. Other measurements were performed at LSI Medience Corporation. The FAS was used for analyzing efficacy parameters of effects on lipids, fibrinogen, and FGF21. The safety analysis set was used for safety parameters and included all patients who received at least one dose of the study drug. For lipid parameters, fibrinogen, and FGF21, LS means (95% confidence interval) were calculated at Week 12 (LOCF) using analysis of covariance (ANCOVA) with baseline values as the co-variable within each category. For safety parameters, LS means (95% confidence interval) were calculated at Week 12 using ANCOVA with baseline values as the co-variable within each category. SAS version 9.2 was used for analyses.

CC[C@@H](Oc1cccc(CN(CCCOc2ccc(OC)cc2)c2nc3ccccc3o2)c1)C(=O)O [Pemafibrate, (2R)-2-[3-({1,3-benzoxazol-2-yl[3-(4-methoxyphenoxy)propyl]amino}methyl)phenoxy]butanoic acid]
ADE Leading to withdrawal, number of patients (0.1 mg/day, n=45): 1 | ADE Leading to withdrawal, percentage of patients (0.1 mg/day, n=45): (2.2) percentage | ADE Serious, number of patients (0.1 mg/day, n=45): 0 | ADE Total, number of patients (0.1 mg/day, n=45): 3 | ADE Total, percentage of patients (0.1 mg/day, n=45): (6.7) percentage | AE Leading to withdrawal, number of patients (0.1 mg/day, n=45): 2 | AE Leading to withdrawal, percentage of patients (0.1 mg/day, n=45): (4.4) percentage | AE Serious, number of patients (0.1 mg/day, n=45): 2 | AE Serious, percentage of patients (0.1 mg/day, n=45): (4.4) percentage | AE Total, number of patients (0.1 mg/day, n=45): 29 | AE Total, percentage of patients (0.1 mg/day, n=45): (64.4) percentage | ALT ≥ ULN × 3, number of patients (0.1 mg/day, n=45): 1 | ALT ≥ ULN × 3, percentage of patients (0.1 mg/day, n=45): (2.2) percentage | AST ≥ ULN × 3, number of patients (0.1 mg/day, n=45): 0 | CK ≥ 2.5 and < ULN × 5, number of patients (0.1 mg/day, n=45): 2 | CK ≥ 2.5 and < ULN × 5, percentage of patients (0.1 mg/day, n=45): (4.4) percentage | CK ≥ 5 and < ULN × 10, number of patients (0.1 mg/day, n=45): 0 | CK ≥ ULN × 10, number of patients (0.1 mg/day, n=45): 0 | sCr ≥ ULN, number of patients (0.1 mg/day, n=45): 8 | sCr ≥ ULN, percentage of patients (0.1 mg/day, n=45): (17.8) percentage | ADE Leading to withdrawal, number of patients (0.2 mg/day, n=382): 11 | ADE Leading to withdrawal, percentage of patients (0.2 mg/day, n=382): (2.9) percentage | ADE Serious, number of patients (0.2 mg/day, n=382): 2 | ADE Serious, percentage of patients (0.2 mg/day, n=382): (0.5) percentage | ADE Total, number of patients (0.2 mg/day, n=382): 36 | ADE Total, percentage of patients (0.2 mg/day, n=382): (9.4) percentage | AE Leading to withdrawal, number of patients (0.2 mg/day, n=382): 12 | AE Leading to withdrawal, percentage of patients (0.2 mg/day, n=382): (3.1) percentage | AE Serious, number of patients (0.2 mg/day, n=382): 6 | AE Serious, percentage of patients (0.2 mg/day, n=382): (1.6) percentage | AE Total, number of patients (0.2 mg/day, n=382): 164 | AE Total, percentage of patients (0.2 mg/day, n=382): (42.9) percentage | ALT ≥ ULN × 3, number of patients (0.2 mg/day, n=382): 0 | AST ≥ ULN × 3, number of patients (0.2 mg/day, n=382): 1 | AST ≥ ULN × 3, percentage of patients (0.2 mg/day, n=382): (0.3) percentage | CK ≥ 2.5 and < ULN × 5, number of patients (0.2 mg/day, n=382): 7 | CK ≥ 2.5 and < ULN × 5, percentage of patients (0.2 mg/day, n=382): (1.6) percentage | CK ≥ 5 and < ULN × 10, number of patients (0.2 mg/day, n=382): 3 | CK ≥ 5 and < ULN × 10, percentage of patients (0.2 mg/day, n=382): (0.6) percentage | CK ≥ ULN × 10, number of patients (0.2 mg/day, n=382): 1 | CK ≥ ULN × 10, percentage of patients (0.2 mg/day, n=382): (0.3) percentage | sCr ≥ ULN, number of patients (0.2 mg/day, n=382): 61 | sCr ≥ ULN, percentage of patients (0.2 mg/day, n=382): (16.0) percentage | ADE Leading to withdrawal, number of patients (0.4 mg/day, n=72): 0 | ADE Serious, number of patients (0.4 mg/day, n=72): 0 | ADE Total, number of patients (0.4 mg/day, n=72): 2 | ADE Total, percentage of patients (0.4 mg/day, n=72): (2.8) percentage | AE Leading to withdrawal, number of patients (0.4 mg/day, n=72): 0 | AE Serious, number of patients (0.4 mg/day, n=72): 0 | AE Total, number of patients (0.4 mg/day, n=72): 34 | AE Total, percentage of patients (0.4 mg/day, n=72): (47.2) percentage | ALT ≥ ULN × 3, number of patients (0.4 mg/day, n=72): 1 | ALT ≥ ULN × 3, percentage of patients (0.4 mg/day, n=72): (1.4) percentage | AST ≥ ULN × 3, number of patients (0.4 mg/day, n=72): 1 | AST ≥ ULN × 3, percentage of patients (0.4 mg/day, n=72): (1.4) percentage | CK ≥ 2.5 and < ULN × 5, number of patients (0.4 mg/day, n=72): 2 | CK ≥ 2.5 and < ULN × 5, percentage of patients (0.4 mg/day, n=72): (2.8) percentage | CK ≥ 5 and < ULN × 10, number of patients (0.4 mg/day, n=72): 0 | CK ≥ ULN × 10, number of patients (0.4 mg/day, n=72): 0 | sCr ≥ ULN, number of patients (0.4 mg/day, n=72): 11 | sCr ≥ ULN, percentage of patients (0.4 mg/day, n=72): (15.3) percentage
